Data on one compound can be found in article PMC12766721, “Regio- and Stereoselective Halogenation by an Iron(II)- and 2‑Oxoglutarate-Dependent Halogenase in the Biosynthesis of Halogenated Nucleosides” (Journal of the American Chemical Society, 2025).

pKd: −log10 of the molar value.

The target in the assay is AdeV. In words: stopped-flow absorption kinetics (substrate-dependent formation of the […] nm chloro-ferryl feature), with freeze-quench Mössbauer and LC–MS turnover of purified enzyme. The format is biochemical, Actinomadura sp. ATCC 39365.

For `Nc1ncnc2c1ncn2[C@H]1C[C@H](O)[C@@H](COP(=O)(O)O)O1` [compound 1, 2′-deoxyadenosine monophosphate], the pKd (commonly the Kd on a negative log10 scale, so that one unit is a factor of ten) was about 1.55.
